The assay has as its target T1, human TLR8 (Homo sapiens, UniProt Q9NR97).
T1 sequence (Q9NR97 27-1041): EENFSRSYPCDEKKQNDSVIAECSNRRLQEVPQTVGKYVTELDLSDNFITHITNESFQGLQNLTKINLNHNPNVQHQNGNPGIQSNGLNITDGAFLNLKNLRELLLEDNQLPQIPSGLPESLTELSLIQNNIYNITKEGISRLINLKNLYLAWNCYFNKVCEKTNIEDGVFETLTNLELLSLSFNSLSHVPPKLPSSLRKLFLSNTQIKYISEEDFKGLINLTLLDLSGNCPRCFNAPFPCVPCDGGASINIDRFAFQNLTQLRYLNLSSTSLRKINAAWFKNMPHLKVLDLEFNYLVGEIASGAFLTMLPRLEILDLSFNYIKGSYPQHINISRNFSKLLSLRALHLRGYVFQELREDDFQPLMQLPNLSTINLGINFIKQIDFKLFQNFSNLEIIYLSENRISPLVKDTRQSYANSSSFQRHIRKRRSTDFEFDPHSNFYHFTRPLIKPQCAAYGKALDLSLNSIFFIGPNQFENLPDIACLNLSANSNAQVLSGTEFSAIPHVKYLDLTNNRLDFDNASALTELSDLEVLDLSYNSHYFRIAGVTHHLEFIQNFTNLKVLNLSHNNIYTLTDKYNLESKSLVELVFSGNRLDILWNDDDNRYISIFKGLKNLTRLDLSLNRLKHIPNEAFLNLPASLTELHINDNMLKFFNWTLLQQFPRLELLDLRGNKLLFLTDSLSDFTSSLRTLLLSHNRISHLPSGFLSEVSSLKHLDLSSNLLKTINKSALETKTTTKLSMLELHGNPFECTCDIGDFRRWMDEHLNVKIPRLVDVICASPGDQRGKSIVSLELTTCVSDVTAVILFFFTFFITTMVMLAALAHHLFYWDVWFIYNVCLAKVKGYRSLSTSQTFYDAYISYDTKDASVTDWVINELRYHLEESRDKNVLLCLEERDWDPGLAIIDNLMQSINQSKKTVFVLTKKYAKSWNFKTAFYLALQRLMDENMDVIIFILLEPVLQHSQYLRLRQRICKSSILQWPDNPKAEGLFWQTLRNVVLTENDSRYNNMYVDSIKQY
Nature of the assay: HEK293-Blue-hTLR-8 cells assay (SEAP reporter, R848 stimulation). Type of assay: cell-based. The following applies: HEK293-Blue-hTLR8 cells, R848, 20 hrs; 0.003 is the lowest tested concentration; read-out: HEK/hTLR8 IC50. As for the experimental part: The following tests were carried out in order to determine the activity of the compounds of formula (I) or (Ia) in HEK293-Blue-hTLR-7/8/9 cells assay.
HEK293-Blue-hTLR-8 cells assay:
A stable HEK293-Blue-hTLR-8 cell line was purchased from InvivoGen (Cat.#: hkb-htlr8, San Diego, California, USA). These cells were originally designed for studying the stimulation of human TLR8 by monitoring the activation of NF-κB. A SEAP (secreted embryonic alkaline phosphatase) reporter gene was placed under the control of the IFN-β minimal promoter fused to five NF-κB and AP-1-binding sites. The SEAP was induced by activating NF-κB and AP-1 via stimulating HEK-Blue hTLR8 cells with TLR8 ligands. Therefore the reporter expression was declined by TLR8 antagonist under the stimulation of a ligand, such as R848, for incubation of 20 hrs. The cell culture supernatant SEAP reporter activity was determined using QUANTI-Blue™ kit (Cat.#: rep-qb1, Invivogen, San Diego, Ca, USA) at a wavelength of 640 nm, a detection medium that turns purple or blue in the presence of alkaline phosphatase.
HEK293-Blue-hTLR8 cells were incubated at a density of 250,000∼450,000 cells/mL in a volume of 170 µL in a 96-well plate in Dulbecco's Modified Eagle's medium (DMEM) containing 4.5 g/L glucose, 50 U/mL penicillin, […], […], 2 mM L-glutamine, 10% (v/v) heat-inactivated fetal bovine serum with addition of 20 µL test compound in a serial dilution in the presence of final DMSO at 1% and 10 µL of 60uM R848 in above DMEM, perform incubation under 37 °C in a CO2 incubator for 20 hrs. Then 20 µL of the supernatant from each well was incubated with 180 µL Quanti-blue substrate solution at 37°C for 2 hrs and the absorbance was read at 620∼655 nm using a spectrophotometer. The signalling pathway that TLR8 activation leads to downstream NF-κB activation has been widely accepted, and therefore similar reporter assay was modified for evaluating TLR8 antagonist.
In the case of `C[C@@H]1CN(c2ccc(C#N)c3nccnc23)C[C@H](CN2Cc3ccc(N4CCN5CCCCC5C4)cc3C2)O1` (stereo partly drawn) [Example 40, 8-[(2S,6R)-2-[[5-(1,3,4,6,7,8,9,9a-octahydropyrido[1,2-a]pyrazin-2-yl)isoindolin-2-yl]methyl]-6-methyl-morpholin-4-yl]quinoxaline-5-carbonitrile], the IC50 is 4 nM. Next, `C[C@@H]1CN(c2ccc(C#N)c3nccnc23)C[C@H](CN2Cc3ccc(N4C5CCC4CNC5)cc3C2)O1` [Example 41, 8-[(2S,6R)-2-[[5-(3,8-diazabicyclo[3.2.1]octan-8-yl)isoindolin-2-yl]methyl]-6-methyl-morpholin-4-yl]quinoxaline-5-carbonitrile]: 9 nM. Take `C[C@@H]1CN(c2ccc(C#N)c3ncccc23)C[C@H](CN2Cc3ccc(N4CC5CCC(C4)N5)cc3C2)O1` [Example 42, 5-[(2S,6R)-2-[[5-(3,8-diazabicyclo[3.2.1]octan-3-yl)isoindolin-2-yl]methyl]-6-methyl-morpholin-4-yl]quinoline-8-carbonitrile]: the IC50 amounted to 13 nM. Next, `C[C@@H]1CN(c2ccc(C#N)c3ncccc23)C[C@H](CN2Cc3ccc(N4C5CCC4CNC5)cc3C2)O1` [Example 43, 5-[(2S,6R)-2-[[5-(3,8-diazabicyclo[3.2.1]octan-8-yl)isoindolin-2-yl]methyl]-6-methyl-morpholin-4-yl]quinoline-8-carbonitrile]: 12 nM; `C[C@@H]1CN(c2ccc(C#N)c3ncccc23)C[C@H](CN2Cc3ccc(N4C5CNCC4COC5)cc3C2)O1` [Example 46, 5-[(2R,6S)-2-methyl-6-[[5-(3-oxa-7,9-diazabicyclo[3.3.1]nonan-9-yl)isoindolin-2-yl]methyl]morpholin-4-yl]quinoline-8-carbonitrile]: 19 nM; `C[C@@H]1CN(c2ccc(C#N)c3ncccc23)C[C@H](CN2Cc3ccc(N4CC5(CNC5)C4)cc3C2)O1` [Example 47, 5-[(2S,6R)-2-[[5-(2,6-diazaspiro[3.3]heptan-2-yl)isoindolin-2-yl]methyl]-6-methyl-morpholin-4-yl]quinoline-8-carbonitrile]: 23 nM. Take `CC1c2ccc(N3CCNCC3)cc2CN1C[C@H]1CN(c2ccc(C#N)c3ncccc23)C[C@@H](C)O1` (stereo partly drawn) [Example 48, 5-[(2R,6S)-2-methyl-6-[(1-methyl-5-piperazin-1-yl-isoindolin-2-yl)methyl]morpholin-4-yl]quinoline-8-carbonitrile]: the IC50 worked out at 18 nM. With `C[C@@H]1CN(c2ccc(C#N)c3nccnc23)C[C@H](CN2Cc3ccc(N4CC5COCC(C4)N5)cc3C2)O1` [Example 49, 8-[(2R,6S)-2-methyl-6-[[5-(3-oxa-7,9-diazabicyclo[3.3.1]nonan-7-yl)isoindolin-2-yl]methyl]morpholin-4-yl]quinoxaline-5-carbonitrile] the figure was 14 nM; with `CCOC(=O)C1CNCCN1c1ccc2c(c1)CN(C[C@H]1CN(c3ccc(C#N)c4ncccc34)C[C@@H](C)O1)C2` (stereo partly drawn) [Example 50, Ethyl 1-[2-[[(2S,6R)-4-(8-cyano-5-quinolyl)-6-methyl-morpholin-2-yl]methyl]isoindolin-5-yl] piperazine-2-carboxylate], 33 nM; with `C[C@@H]1CN(c2ccc(C#N)c3ncccc23)C[C@H](CN2Cc3ccc(N4CC5(CCN5)C4)cc3C2)O1` [Example 55, 5-[(2S,6R)-2-[[5-(1,6-diazaspiro[3.3]heptan-6-yl)isoindolin-2-yl]methyl]-6-methyl-morpholin-4-yl]quinoline-8-carbonitrile], 7 nM. For `C[C@@H]1CN(c2ccc(C#N)c3ncccc23)C[C@H](CN2Cc3cc(N4CCNCC4)cc(F)c3C2)O1` [Example 59, 5-[(2S,6R)-2-[(4-fluoro-6-piperazin-1-yl-isoindolin-2-yl)methyl]-6-methyl-morpholin-4-yl]quinoline-8-carbonitrile], the IC50 is under 3 nM.

On to `C[C@@H]1CN(c2ccc(C#N)c3nccnc23)C[C@H](CN2Cc3cnc(N4CCNCC4)cc3C2)O1` [Example 60, 8-[(2R,6S)-2-methyl-6-[(6-piperazin-1-yl-1,3-dihydropyrrolo[3,4-c]pyridin-2-yl)methyl]morpholin-4-yl]quinoxaline-5-carbonitrile], for which the IC50 is under 3 nM. Next, `C[C@@H]1CN(c2ccc(C#N)c3ncccc23)C[C@H](CN2Cc3cnc(N4CCNCC4)cc3C2)O1` [Example 61, 5-[(2R,6S)-2-methyl-6-[(6-piperazin-1-yl-1,3-dihydropyrrolo[3,4-c]pyridin-2-yl)methyl]morpholin-4-yl]quinoline-8-carbonitrile]: under 3 nM; `C[C@@H]1CN(c2ccc3c(c2)CN(C[C@H]2CN(c4ccc(C#N)c5ncccc45)C[C@@H](C)O2)C3)CCN1` [Example 62, 5-[(2R,6S)-2-methyl-6-[[5-[(3R)-3-methylpiperazin-1-yl]isoindolin-2-yl]methyl]morpholin-4-yl] quinoline-8-carbonitrile]: 5 nM; `C[C@@H]1CN(c2ccc(C#N)c3ncccc23)C[C@H](CN2Cc3cnc(N4CCNCC4)nc3C2)O1` [Example 63, 5-[(2R,6S)-2-methyl-6-[(2-piperazin-1-yl-5,7-dihydropyrrolo[3,4-d]pyrimidin-6-yl)methyl]morpholin-4-yl]quinoline-8-carbonitrile]: under 3 nM. Next, `C[C@@H]1CN(c2ccc(C#N)c3ncccc23)C[C@H](CN2Cc3ccc(N4CCN[C@@H](C)C4)cc3C2)O1` [Example 64, 5-[(2R,6S)-2-methyl-6-[[5-[(3S)-3-methylpiperazin-1-yl]isoindolin-2-yl]methyl]morpholin-4-yl]quinoline-8-carbonitrile]: 6 nM. With `C[C@@H]1CN(c2ccc3c(c2)CN(C[C@H]2CN(c4ccc(C#N)c5nccnc45)C[C@@H](C)O2)C3)CCN1` [Example 65, 8-[(2R,6S)-2-methyl-6-[[5-[(3R)-3-methylpiperazin-1-yl]isoindolin-2-yl]methyl]morpholin-4-yl] quinoxaline-5-carbonitrile] the figure was under 3 nM; with `C[C@@H]1CN(c2ccc(C#N)c3nccnc23)C[C@H](CN2Cc3ccc(N4CCN[C@@H](C)C4)cc3C2)O1` [Example 66, 8-[(2R,6S)-2-methyl-6-[[5-[(3S)-3-methylpiperazin-1-yl]isoindolin-2-yl]methyl]morpholin-4-yl]quinoxaline-5-carbonitrile], under 3 nM; with `COC(=O)C1CN(c2ccc3c(c2)CN(C[C@H]2CN(c4ccc(C#N)c5ncccc45)C[C@@H](C)O2)C3)CCN1` (stereo partly drawn) [Example 67, Methyl 4-[2-[[(2S,6R)-4-(8-cyano-5-quinolyl)-6-methyl-morpholin-2-yl]methyl]isoindolin-5-yl] piperazine-2-carboxylate], 36 nM. For the compound `C[C@@H]1CN(c2ccc(C#N)c3ncccc23)C[C@H](CN2Cc3cc(N4CCN(C)CC4)cc(F)c3C2)O1` [Example 69, 5-[(2S,6R)-2-[[4-fluoro-6-(4-methylpiperazin-1-yl)isoindolin-2-yl]methyl]-6-methyl-morpholin-4-yl]quinoline-8-carbonitrile], the IC50 is under 3 nM.
